Experimental data taken from US20130143894A1 (vadel Pharma Inc., priority 2010, published 2013).
Counter-ions that a name gives are not always drawn.

Tests used:
[1] = Safety / tolerability in the relative bioavailability study; format: in vivo, human; conditions: oral spray doses of 10 mg, 20 mg, 30 mg and single oral dose of 25 mg (1×25 mg tablet), healthy adult subjects, under fed conditions
Procedure: Assessments include evaluation of changes in orthostatic hypotension, oral irritation, vital sign assessments, 12-lead electrocardiogram (ECG), and clinical assessments.
After dosing, the following activities were completed: • Both objective and subjective oral irritation assessments were performed immediately after dosing and at one hour after dose administration. • A fast was maintained until at least four hours after dosing. During the study confinement period, fluid consumption resumed no sooner than one hour after dose administration. […]
• Blood sample collections were obtained as per the profile. • Supine and standing blood pressure and heart rate was measured at approximately 24 hours after each dose. • All subjects were evaluated for the presence of any adverse events prior to release from the study site. • Prior to release, subjects were evaluated to ensure it was safe for them to be released from the study site. • Subjects were released from the study site at approximately 24 hours after dose administration.

[2] = cited from earlier work

SMILES	tolerability [1]	absolute bioavailability ([2]; after oral administration (tablet))	mean steady state volume of distribution (Vss) ([2]; in vivo)
CCCc1nn(C)c2c(=O)[nH]c(-c3cc(S(=O)(=O)N4CCN(C)CC4)ccc3OCC)nc12 [sildenafil citrate]	well tolerated		
CCCc1nn(C)c2c(=O)[nH]c(-c3cc(S(=O)(=O)N4CCN(C)CC4)ccc3OCC)nc12 [sildenafil, 1-[[3-(6,7-dihydro-1-methyl-7-oxo-3-propyl-1H-pyrazolo[4,3-d]pyrimidin-5-yl)-4-ethoxyphenyl]sulfonyl]-4-methylpiperazine]		41%	105 L
